Patent US10865208B2, “ATG7 inhibitors and the uses thereof” (Millennium Pharmaceuticals, Inc., priority 2016, dated 2020)

Target: recombinant human His-ATG7 enzyme (Homo sapiens (Human), UniProt O95352)
Assay: ATG7 Enzyme Assay (HTRF/FRET, ATG3-GST and Flag-Gabarap)
Type: biochemical
Details: for inhibition at 0.111 µM: Concentration 0.111 μM; for inhibition at 0.111 µM / inhibition at 0.123 µM: read-out: Percent Inhibition; for inhibition at 0.123 µM: Concentration 0.123 μM
Outline: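 0.15 nM His-ATG7 was reacted with 5 nM ATG3-GST, 5 nM Flag-Gabarap and 10 μM ATP in HEPES pH 7.5 containing MgCl2, GSH and TCEP for 105 min at 24° C, then stopped with EDTA/KF. Eu-anti-Flag and anti-GST-APC HTRF was read after 2 h. Results are given as single-concentration % inhibition or IC50.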

recombinant human His-ATG7 enzyme, sequence (O95352 whole entry): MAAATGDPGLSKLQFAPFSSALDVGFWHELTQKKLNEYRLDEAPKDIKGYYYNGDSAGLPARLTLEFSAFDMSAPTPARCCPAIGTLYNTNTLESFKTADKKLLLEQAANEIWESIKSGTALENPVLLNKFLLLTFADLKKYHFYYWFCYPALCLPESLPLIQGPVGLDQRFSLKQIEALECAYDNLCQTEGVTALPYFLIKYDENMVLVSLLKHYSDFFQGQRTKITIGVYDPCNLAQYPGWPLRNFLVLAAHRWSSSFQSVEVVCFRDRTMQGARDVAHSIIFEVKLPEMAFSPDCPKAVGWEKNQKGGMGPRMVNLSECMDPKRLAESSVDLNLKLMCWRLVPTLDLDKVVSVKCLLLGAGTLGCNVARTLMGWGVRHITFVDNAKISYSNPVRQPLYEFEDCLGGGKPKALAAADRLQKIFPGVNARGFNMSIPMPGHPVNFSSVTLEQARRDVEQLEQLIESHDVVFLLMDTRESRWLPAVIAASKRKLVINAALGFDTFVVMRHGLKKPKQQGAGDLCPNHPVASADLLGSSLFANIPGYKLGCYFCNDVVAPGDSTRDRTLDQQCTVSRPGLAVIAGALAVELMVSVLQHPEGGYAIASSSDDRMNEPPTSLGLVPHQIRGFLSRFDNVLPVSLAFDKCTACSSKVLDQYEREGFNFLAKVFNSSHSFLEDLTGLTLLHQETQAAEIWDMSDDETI

Row | IC50 [nM] | inhibition at 0.111 µM [%] | inhibition at 0.123 µM [%] | SMILES
1 | 20 to 50 | 70 | – | CC(C)(C)Sc1nn([C@H]2C[C@H](O)[C@@H](COS(N)(=O)=O)O2)c2ncnc(N)c12 [Compound I-177, {(2R,3S,5R)-5-[4-amino-3-(tert-butylsulfanyl)-1H-pyrazolo[3,4-d]pyrimidin-1-yl]-3-hydroxytetrahydrofuran-2-yl}methyl sulfamate]
2 | 20 to 50 | 74 | – | COc1ccc(Sc2nn([C@H]3C[C@H](O)[C@@H](COS(N)(=O)=O)O3)c3ncnc(N)c23)c(F)c1 [Compound I-178, [(2R,3S,5R)-5-{4-amino-3-[(2-fluoro-4-methoxyphenyl)sulfanyl]-1H-pyrazolo[3,4-d]pyrimidin-1-yl}-3-hydroxytetrahydrofuran-2-yl]methyl sulfamate]
3 | 100 to 500 | 50 | – | Nc1ncnc2c1c(Sc1cccc(Cl)c1)nn2[C@H]1C[C@H](O)[C@@H](COS(N)(=O)=O)O1 [Compound I-179, [(2R,3S,5R)-5-{4-amino-3-[(3-chlorophenyl)sulfanyl]-1H-pyrazolo[3,4-d]pyrimidin-1-yl}-3-hydroxytetrahydrofuran-2-yl]methyl sulfamate]
4 | 100 to 500 | 29 | – | CN(C)C(=O)CSc1nn([C@H]2C[C@H](O)[C@@H](COS(N)(=O)=O)O2)c2ncnc(N)c12 [Compound I-180, [(2R,3S,5R)-5-(4-amino-3-{[2-(dimethylamino)-2-oxoethyl]sulfanyl}-1H-pyrazolo[3,4-d]pyrimidin-1-yl)-3-hydroxytetrahydrofuran-2-yl]methyl sulfamate]
5 | 20 to 50 | – | 81 | CC(C)Sc1nn([C@H]2C[C@H](O)[C@@H](COS(N)(=O)=O)O2)c2ncnc(N)c12 [Compound I-181, {(2R,3S,5R)-5-[4-amino-3-(isopropylsulfanyl)-1H-pyrazolo[3,4-d]pyrimidin-1-yl]-3-hydroxytetrahydrofuran-2-yl}methyl Sulfamate]
6 | 50 to 100 | 66 | – | Nc1ncnc2c1c(Sc1ccccc1F)nn2[C@H]1C[C@H](O)[C@@H](COS(N)(=O)=O)O1 [Compound I-182, [(2R,3S,5R)-5-{4-amino-3-[(2-fluorophenyl)sulfanyl]-1H-pyrazolo[3,4-d]pyrimidin-1-yl}-3-hydroxytetrahydrofuran-2-yl]methyl sulfamate]
7 | 100 to 500 | 28 | – | Nc1ncnc2c1c(Sc1ccc3ccccc3n1)nn2[C@H]1C[C@H](O)[C@@H](COS(N)(=O)=O)O1 [Compound I-183, {(2R,3S,5R)-5-[4-amino-3-(quinolin-2-ylsulfanyl)-1H-pyrazolo[3,4-d]pyrimidin-1-yl]-3-hydroxytetrahydrofuran-2-yl}methyl sulfamate]
8 | 50 to 100 | 64 | – | CC(C)Oc1ccc(Sc2nn([C@H]3C[C@H](O)[C@@H](COS(N)(=O)=O)O3)c3ncnc(N)c23)cc1 [Compound I-184, [(2R,3S,5R)-5-{4-amino-3-[(4-isopropoxyphenyl)sulfanyl]-1H-pyrazolo[3,4-d]pyrimidin-1-yl}-3-hydroxytetrahydrofuran-2-yl]methyl sulfamate]
9 | 50 to 100 | 56 | – | CN1C(=O)Cc2cc(Sc3nn([C@H]4C[C@H](O)[C@@H](COS(N)(=O)=O)O4)c4ncnc(N)c34)ccc21 [Compound I-185, [(2R,3S,5R)-5-{4-amino-3-[(1-methyl-2-oxo-2,3-dihydro-1H-indol-5-yl)sulfanyl]-1H-pyrazolo[3,4-d]pyrimidin-1-yl}-3-hydroxytetrahydrofuran-2-yl]methyl sulfamate]
10 | 20 to 50 | 74 | – | Nc1ncnc2c1c(Sc1ccc3c(c1)CCO3)nn2[C@H]1C[C@H](O)[C@@H](COS(N)(=O)=O)O1 [Compound I-186, {(2R,3S,5R)-5-[4-amino-3-(2,3-dihydro-1-benzofuran-5-ylsulfanyl)-1H-pyrazolo[3,4-d]pyrimidin-1-yl]-3-hydroxytetrahydrofuran-2-yl}methyl sulfamate]
11 | 50 to 100 | 56 | – | Nc1ncnc2c1c(Sc1ccc(F)cc1)nn2[C@H]1C[C@H](O)[C@@H](COS(N)(=O)=O)O1 [Compound I-187, [(2R,3S,5R)-5-{4-amino-3-[(4-fluorophenyl)sulfanyl]-1H-pyrazolo[3,4-d]pyrimidin-1-yl}-3-hydroxytetrahydrofuran-2-yl]methyl sulfamate]
12 | 100 to 500 | 37 | – | N#CCSc1nn([C@H]2C[C@H](O)[C@@H](COS(N)(=O)=O)O2)c2ncnc(N)c12 [Compound I-188, [(2R,3S,5R)-5-{4-amino-3-[(cyanomethyl)sulfanyl]-1H-pyrazolo[3,4-d]pyrimidin-1-yl}-3-hydroxytetrahydrofuran-2-yl]methyl sulfamate]
13 | 50 to 100 | 60 | – | Nc1ncnc2c1c(Sc1ccc(Cl)cn1)nn2[C@H]1C[C@H](O)[C@@H](COS(N)(=O)=O)O1 [Compound I-189, [(2R,3S,5R)-5-{4-amino-3-[(5-chloropyridin-2-yl)sulfanyl]-1H-pyrazolo[3,4-d]pyrimidin-1-yl}-3-hydroxytetrahydrofuran-2-yl]methyl sulfamate]
14 | 100 to 500 | – | 35 | COc1nn([C@H]2C[C@H](O)[C@@H](COS(N)(=O)=O)O2)c2ncnc(N)c12 [Compound I-190, [(2R,3S,5R)-5-(4-amino-3-methoxy-1H-pyrazolo[3,4-d]pyrimidin-1-yl)-3-hydroxytetrahydrofuran-2-yl]methyl Sulfamate]
15 | 50 to 100 | 63 | – | Cc1ccc(F)c(Sc2nn([C@H]3C[C@H](O)[C@@H](COS(N)(=O)=O)O3)c3ncnc(N)c23)c1 [Compound I-191, [(2R,3S,5R)-5-{4-amino-3-[(2-fluoro-5-methylphenyl)sulfanyl]-1H-pyrazolo[3,4-d]pyrimidin-1-yl}-3-hydroxytetrahydrofuran-2-yl]methyl sulfamate]
16 | 50 to 100 | 61 | – | Nc1ncnc2c1c(I)nn2[C@H]1C[C@H](O)[C@@H](COS(N)(=O)=O)O1 [Compound I-192, [(2R,3S,5R)-5-(4-amino-3-iodo-1H-pyrazolo[3,4-d]pyrimidin-1-yl)-3-hydroxytetrahydrofuran-2-yl]methyl Sulfamate]
17 | 100 to 500 | 46 | – | Cc1ccc(Sc2nn([C@H]3C[C@H](O)[C@@H](COS(N)(=O)=O)O3)c3ncnc(N)c23)cc1 [Compound I-193, [(2R,3S,5R)-5-{4-amino-3-[(4-methylphenyl)sulfanyl]-1H-pyrazolo[3,4-d]pyrimidin-1-yl}-3-hydroxytetrahydrofuran-2-yl]methyl sulfamate]
18 | 20 to 50 | 79 | – | Nc1ncnc2c1c(Sc1ccccn1)nn2[C@H]1C[C@H](O)[C@@H](COS(N)(=O)=O)O1 [Compound I-194, {(2R,3S,5R)-5-[4-amino-3-(pyridin-2-ylsulfanyl)-1H-pyrazolo[3,4-d]pyrimidin-1-yl]-3-hydroxytetrahydrofuran-2-yl}methyl sulfamate]
19 | 50 to 100 | 53 | – | Nc1ncnc2c1c(OC(F)F)nn2[C@H]1C[C@H](O)[C@@H](COS(N)(=O)=O)O1 [Compound I-195, {(2R,3S,5R)-5-[4-amino-3-(difluoromethoxy)-1H-pyrazolo[3,4-d]pyrimidin-1-yl]-3-hydroxytetrahydrofuran-2-yl}methyl Sulfamate]
20 | 50 to 100 | 65 | – | Cc1ccc(Sc2nn([C@H]3C[C@H](O)[C@@H](COS(N)(=O)=O)O3)c3ncnc(N)c23)cc1C [Compound I-196, [(2R,3S,5R)-5-{4-amino-3-[(3,4-dimethylphenyl)sulfanyl]-1H-pyrazolo[3,4-d]pyrimidin-1-yl}-3-hydroxytetrahydrofuran-2-yl]methyl sulfamate]
21 | 100 to 500 | 45 | – | Nc1ncnc2c1c(Sc1ccc(OC(F)(F)F)cc1)nn2[C@H]1C[C@H](O)[C@@H](COS(N)(=O)=O)O1 [Compound I-197, [(2R,3S,5R)-5-(4-amino-3-{[4-(trifluoromethoxy)phenyl]sulfanyl}-1H-pyrazolo[3,4-d]pyrimidin-1-yl)-3-hydroxytetrahydrofuran-2-yl]methyl sulfamate]
22 | 100 to 500 | 42 | – | Nc1ncnc2c1c(Sc1cccc(OC(F)(F)F)c1)nn2[C@H]1C[C@H](O)[C@@H](COS(N)(=O)=O)O1 [Compound I-198, [(2R,3S,5R)-5-(4-amino-3-{[3-(trifluoromethoxy)phenyl]sulfanyl}-1H-pyrazolo[3,4-d]pyrimidin-1-yl)-3-hydroxytetrahydrofuran-2-yl]methyl sulfamate]
23 | 20 to 50 | 74 | – | COc1cccc(Sc2nn([C@H]3C[C@H](O)[C@@H](COS(N)(=O)=O)O3)c3ncnc(N)c23)c1 [Compound I-199, [(2R,3S,5R)-5-{4-amino-3-[(3-methoxyphenyl)sulfanyl]-1H-pyrazolo[3,4-d]pyrimidin-1-yl}-3-hydroxytetrahydrofuran-2-yl]methyl sulfamate]
24 | 20 to 50 | 70 | – | CSc1nn([C@H]2C[C@H](O)[C@@H](COS(N)(=O)=O)O2)c2ncnc(N)c12 [Compound I-200, {(2R,3S,5R)-5-[4-amino-3-(methylsulfanyl)-1H-pyrazolo[3,4-d]pyrimidin-1-yl]-3-hydroxytetrahydrofuran-2-yl}methyl Sulfamate]
25 | 20 to 50 | 68 | – | Nc1ncnc2c1c(Sc1ccc3c(c1)OCCO3)nn2[C@H]1C[C@H](O)[C@@H](COS(N)(=O)=O)O1 [Compound I-201, {(2R,3S,5R)-5-[4-amino-3-(2,3-dihydro-1,4-benzodioxin-6-ylsulfanyl)-1H-pyrazolo[3,4-d]pyrimidin-1-yl]-3-hydroxytetrahydrofuran-2-yl}methyl sulfamate]
